According to patent publication US20230235374A1, “High Throughput Assays for Detecting Translation Readthrough Inducers” (The Trustees of the University of Pennsylvania, priority 2021, published 2023):

Columns and labels:
[1] = tested on: Small RNAs within Stop-POST5 complex; test: AzAt photoincorporation into small RNAs (urea-PAGE, RNAse H fragments); format: binding, shrimp (Artemia salina)
Protocol: FIG. 11 illustrates 8% Urea-PAGE resolution of small RNAs.
(§1) Photoaffinity labeling with [^3H]-AzAt. Samples in Buffer 4, typically 20 μL, were incubated in the dark (20 min for Stop-POST5 and 80S-IRES complexes, 2 min for release factors) with various concentrations of [^3H]-AzAt at 37° C., transferred to a UV-transparent cuvette which was covered with parafilm to prevent evaporation, and irradiated in a Rayonet photochemical reactor equipped with 300 nm UV lamps for 5 min at room temperature. This was followed by quenching with 2 mM DTT at 37° C. for 5 min under ambient light. The irradiation time gave complete photolysis of the phenyl azide moiety in AzAt. Photolysis was also complete at 5 min in the presence of 1 mM ataluren, ruling out internal filtering effects.
Stop-POST5 and 80S-IRES complexes. 1 μM solutions of either Stop-POST5 or 80S-S.IRES, determined by A260, were photolabeled by [^3H]-AzAt. The sample was then either directly purified by ultracentrifugation through a sucrose cushion to determine the photoincorporation stoichiometry in the complex, or subjected to phenol/chloroform extraction to determine the photoincorporation stoichiometry in the total RNA. To determine the photoincorporation background arising from incomplete removal of noncovalently bound photolyzed AzAt, AzAt was prephotolysed for 5 min before adding to the complex, followed by the 20 min incubation in dark at 37° C. and subsequent sucrose cushion purification or RNA extraction as described above.
(§2) RNaseH Fragment Assay. Total RNA was prepared from the ^3H-AzAt photoaffinity labeled ribosome by phenol-chloroform extraction. RNA: DNA duplexes were formed by incubating total RNA (0.2 μM) with an oligonucleotide pair (1 μM of each, sequences shown Table 1), flanking a specific RNA region, in 22.8 μL of water at 95° C. for 2 min, followed by annealing at 50° C. for 30 s and quenching on ice. Six units (1.2 μL) of RNase H (NEB) and 6 μl of 5×RNase H Reaction Buffer were next added to the RNA: DNA duplex and incubated at 37° C. for 1 hour, followed by phenol-chloroform extraction of RNA. The digested RNA was separated on 12% TBE-Urea PAGE gel, and the target band along with the adjacent upper and bottom gels were sliced by a 2 mm gel cutter. The gel slices were crushed and the ^3H labeled rRNA fragment was extracted in water by vigorously shaking at 70° C. for 30 min, or by overnight extraction in elution buffer (0.3M sodium acetate, 0.25% SDS, 1 mM EDTA). The slurry was removed by centrifugation and the eluted ^3H labeled rRNA in the supernatant was quantified. The stoichiometry of AzAt photoincorporation was calculated based on a gel recovery yield of 20±2%, determined using an authentic sample of [^3H]-Gln-tRNA^Gln.
Small RNAs. AzAt photoincorporation into the 4 small RNAs (CrPV-IRES, 5.8S rRNA, 5S rRNA, and tRNA) contained within POST5 was examined by one-dimensional (1D) urea-PAGE analysis, by RNA-Seq, and by RNAse H fragment assay (FIG. 11).

[2] = tested on: rRNA fragments I-IV of Stop-POST5; test: RNaseH fragment assay, Stop-POST5; format: binding, shrimp (Artemia salina)
Protocol: as §2
Testing the functional pertinence of AzAt photolabeling of 18S A1195, 28S-A3093, 28S-A2672, and 28S-2669. An RNAse H fragment assay was employed to determine whether the potential functionally significant sites identified by LASER-seq correspond to ataluren binding sites relevant for termination activity. In this assay, oligonucleotide hybridization, RNase H digestion and polyacrylamide gel electrophoresis (PAGE) were used to determine the stoichiometry of [^3H]-AzAt photoincorporation into the three rRNA fragments that together include the four nucleotides of interest: Fragment I, 18S-A1195; Fragment II, 26S-A3093; Fragment III, 26S-A2669 and 26S-A2672 (Table 5). The separate addition of four potential competitors of AzAt binding (eRF1 alone, the stably bound eRF1.eRF3.GDPNP complex, ataluren, and the ataluren-like TRID GJ072) was used to test how these affected such photoincorporation. These experiments, the results of which are summarized in Table 5, were performed at two different AzAt concentrations. eRF1 and eRF1.eRF3.GDPNP effects were measured using 300 μM AzAt, paralleling the LASER-Seq PAL experiments.

[3] = target: T1, eRF1.eRF3.GDPNP ternary complex (Saccharomyces cerevisiae, UniProt P12385); test: [3H]-AzAt photoaffinity labeling of eRF1 within ternary complex; format: binding
T1 construct: made in house; host or cells: E. coli BL21(DE3) CodonPlus
Protocol: as §1
(§3) Photoaffinity labeling of release factors. Solutions containing eRF1 (10 μM), eRF3 (20 μM) and 1 mM GMPPMP were pre-incubated at 37° C. for 2 min to form the ternary complex prior to photolabeling with [^3H]-AzAt. After quenching, reaction mixtures were loaded onto a 4-15% mini protean SDS-PAGE gel for protein separation and isolation. Gel slices containing eRF1 or eRF3, as shown by Coomassie Blue R250 staining, were crushed and the radioactivity was extracted in extraction buffer (50 mM Tris-HCl, 150 mM NaCl, and 0.1 mM EDTA; pH 7.5) by vigorously shaking at 70° C. for 30 min. The data fitting was performed using the software Prism. Labeling results of eRF1 alone and within the eRF1.eRF3.GDPNP complex were fit with a one-site binding model and a two-site binding model, respectively.

eRF1 = target: T2, eRF1 (Saccharomyces cerevisiae, UniProt P12385); test: [3H]-AzAt photoaffinity labeling of isolated eRF1; format: binding
T2 construct: made in house; host or cells: E. coli BL21(DE3) CodonPlus
Protocol: as §1, §3

[4] = PAL, 30 μM AzAt, alone (AzAt) or plus competing ligand named as label (Ataluren 500 μM, GJ072 150 μM)
[5] = PAL, 30 μM AzAt, alone or plus competing ligand named as label
[6] = Stop-POST5, PAL, 30 μM AzAt, alone or plus Ataluren 500 μM / GJ072 150 μM named as label
[7] = PAL, 300 μM AzAt, alone or plus competing ligand named as label
[8] = Stop-POST5, PAL, 300 μM AzAt, alone or plus competing ligand named as label
[9] = Stop-POST5, PRE, 300 μM prephotolysed AzAt

T1 sequence (P05453 166-685): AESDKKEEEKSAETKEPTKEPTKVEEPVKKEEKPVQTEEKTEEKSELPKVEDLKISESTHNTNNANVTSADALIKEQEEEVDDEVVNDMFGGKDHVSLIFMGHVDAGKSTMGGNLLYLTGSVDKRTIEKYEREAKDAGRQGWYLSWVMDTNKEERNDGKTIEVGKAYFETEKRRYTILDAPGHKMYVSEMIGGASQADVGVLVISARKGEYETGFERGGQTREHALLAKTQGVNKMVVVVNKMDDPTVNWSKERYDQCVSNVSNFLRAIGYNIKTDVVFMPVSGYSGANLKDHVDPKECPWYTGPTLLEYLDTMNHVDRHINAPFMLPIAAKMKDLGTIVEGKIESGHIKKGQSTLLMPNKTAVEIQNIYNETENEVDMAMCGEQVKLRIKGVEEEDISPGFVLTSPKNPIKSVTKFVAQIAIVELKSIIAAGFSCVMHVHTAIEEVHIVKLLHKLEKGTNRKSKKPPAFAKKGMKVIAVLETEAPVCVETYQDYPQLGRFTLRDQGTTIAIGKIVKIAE
T1 sequence (P12385 whole entry): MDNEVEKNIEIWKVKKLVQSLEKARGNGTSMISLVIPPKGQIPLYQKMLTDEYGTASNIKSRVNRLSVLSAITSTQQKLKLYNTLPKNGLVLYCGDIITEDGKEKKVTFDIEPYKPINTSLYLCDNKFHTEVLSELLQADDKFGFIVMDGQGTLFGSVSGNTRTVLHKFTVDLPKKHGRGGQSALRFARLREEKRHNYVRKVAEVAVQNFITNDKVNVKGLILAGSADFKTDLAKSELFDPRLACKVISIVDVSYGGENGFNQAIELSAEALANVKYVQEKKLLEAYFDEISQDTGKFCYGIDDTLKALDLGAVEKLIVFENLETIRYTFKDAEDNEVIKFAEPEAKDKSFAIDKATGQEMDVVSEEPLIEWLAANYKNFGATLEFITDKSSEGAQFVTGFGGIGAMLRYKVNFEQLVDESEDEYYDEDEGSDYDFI
T2 sequence (P12385 whole entry): as above

Structure (SMILES): O=C(O)c1cccc(-c2noc(-c3ccccc3F)n2)c1 [Ataluren]
- Photoincorporation yields into CrPV-IRES nts1-155 [1, 4]: 0.40 ± 0.13 mole %
- Photoincorporation yields into 5S rRNA [1, 5]: 0.15 ± 0.01 mole %
- Photoincorporation yields into 5.8S rRNA [1, 5]: 0.19 ± 0.01 mole %
- Photoincorporation yields into CrPV-IRES All [1, 5]: 0.76 ± 0.05 mole %
- Photoincorporation yields into CrPV-IRES nts156-221 [1, 5]: 0.17 ± 0.03 mole %
- Photoincorporation yields into CrPV-IRES nts222-278 [1, 5]: 0.07 ± 0.06 mole %
- Photoincorporation yields into tRNA^Gln [1, 5]: 0.22 ± 0.03 mole %
- effect on AzAt labeling of CrPV-IRES fragments 1-155 and 156-221 ([1]; RNAse H fragment assay): no clearly significant changes
- effect on AzAt labeling of small RNAs ([1]; none clearly significant): generally small reductions
- effect on AzAt photoincorporation into Fragment IV (26S A1437/A1438) [2]: neither ataluren nor GJ072 reduce labeling at all
- effect on AzAt photoincorporation into Fragment I (18S-A1195) ([2]; Stop-POST5): strongly inhibits
- effect on AzAt photoincorporation into Fragment II (A3093) ([2]; Stop-POST5): stimulated
- effect on AzAt photoincorporation into Fragment III (A2669/A2672) ([2]; Stop-POST5): only weakly inhibited
- Photoincorporation yields into 18S A1195/ I: 18S 1151-1206 [2, 6]: 0.06 ± 0.01 mole %
- Photoincorporation yields into 26S-A2669:A2672/ III: 26S 2638-2702 [2, 6]: 0.10 ± 0.04 mole %
- Photoincorporation yields into 26S-A3093/ II: 26S 3069-3113 [2, 6]: 0.06 ± 0.01 mole %
- Photoincorporation yields into RNAse H Fragment IV: 26S 1413-1476 [2, 6]: 0.034 ± 0.006%
- inhibition of AzAt photoincorporation into eRF1 within the ternary complex ([3]; compared with isolated eRF1, FIG. 2E): less marked
- effect on AzAt photoincorporation into isolated eRF1 (eRF1; FIG. 2E): substantially inhibited

Structure (SMILES): [N-]=[N+]=Nc1ccc(-c2nc(-c3cccc(C(=O)O)c3)no2)cc1 [AzAt]
- Photoincorporation yields into CrPV-IRES nts1-155 [1, 4]: 0.56 ± 0.04 mole %
- Photoincorporation yields into 5S rRNA [1, 5]: 0.19 ± 0.01 mole %
- Photoincorporation yields into 5.8S rRNA [1, 5]: 0.25 ± 0.01 mole %
- Photoincorporation yields into CrPV-IRES All [1, 5]: 0.85 ± 0.14 mole %
- Photoincorporation yields into CrPV-IRES nts156-221 [1, 5]: 0.23 ± 0.08 mole %
- Photoincorporation yields into CrPV-IRES nts222-278 [1, 5]: 0.06 ± 0.04 mole %
- Photoincorporation yields into tRNA^Gln [1, 5]: 0.30 ± 0.04 mole %
- Photoincorporation yields into CrPV-IRES nts1-155 ([1]; PAL, 300 μM AzAt, alone (AzAt) or plus competing ligand named as label (eRF1 2 μM, eRF3 4 μM, GDPNP 1 mM)): 7.6 ± 1.5 mole %
- Photoincorporation yields into 5S rRNA [1, 7]: 1.62 ± 0.11 mole %
- Photoincorporation yields into 5.8S rRNA [1, 7]: 0.89 ± 0.10 mole %
- Photoincorporation yields into CrPV-IRES All [1, 7]: 7.3 ± 0.5 mole %
- Photoincorporation yields into CrPV-IRES nts156-221 [1, 7]: 3.2 ± 0.8 mole %
- Photoincorporation yields into CrPV-IRES nts222-278 [1, 7]: 0.02 ± 0.03 mole %
- Photoincorporation yields into tRNA^Gln [1, 7]: 2.3 ± 0.2 mole %
- Photoincorporation yields into 5S rRNA ([1]; PRE, 300 μM prephotolysed AzAt): 0.02 ± 0.01 mole %
- Photoincorporation yields into 5.8S rRNA ([1]; PRE, 300 μM prephotolysed AzAt): 0.02 ± 0.01 mole %
- Photoincorporation yields into CrPV-IRES All ([1]; PRE, 300 μM prephotolysed AzAt): 0.02 ± 0.01 mole %
- Photoincorporation yields into CrPV-IRES nts1-155 ([1]; PRE, 300 μM prephotolysed AzAt): 0.02 ± 0.01 mole %
- Photoincorporation yields into CrPV-IRES nts156-221 ([1]; PRE, 300 μM prephotolysed AzAt): 0.05 ± 0.04 mole %
- Photoincorporation yields into CrPV-IRES nts222-278 ([1]; PRE, 300 μM prephotolysed AzAt): 0.03 ± 0.01 mole %
- Photoincorporation yields into tRNA^Gln ([1]; PRE, 300 μM prephotolysed AzAt): 0.41 ± 0.09 mole %
- saturating value of photo-incorporation into Fragment II ([2]; FIG. 7B): 0.8%
- saturating value of photo-incorporation into Fragment III ([2]; FIG. 7B): 0.8%
- Photoincorporation yields into 18S A1195/ I: 18S 1151-1206 [2, 6]: 0.26 ± 0.03 mole %
- Photoincorporation yields into 26S-A2669:A2672/ III: 26S 2638-2702 [2, 6]: 0.13 ± 0.04 mole %
- Photoincorporation yields into 26S-A3093/ II: 26S 3069-3113 [2, 6]: 0.03 ± 0.01 mole %
- Photoincorporation yields into RNAse H Fragment IV: 26S 1413-1476 [2, 6]: 0.020 ± 0.003%
- Photoincorporation yields into 26S-A2669:A2672/ III: 26S 2638-2702 [2, 8]: 1.07 ± 0.14 mole %
- Photoincorporation yields into 26S-A3093/ II: 26S 3069-3113 [2, 8]: 0.40 ± 0.01 mole %
- Photoincorporation yields into RNAse H Fragment IV: 26S 1413-1476 ([2]; Stop-POST5, PAL, 300 μM AzAt, alone or plus competing ligand named as label (eRF1 2 μM, eRF3 4 μM, GDPNP 1 mM)): 0.29 ± 0.03%
- Photoincorporation yields into 18S A1195/ I: 18S 1151-1206 ([2]; Stop-POST5, PAL, 300 μM AzAt, alone or plus competing ligand named as label (eRF1 2 μM, eRF3 4 μM, GDPNP)): 1.55 ± 0.20 mole %
- Photoincorporation yields into 18S A1195/ I: 18S 1151-1206 [2, 9]: 0.012 ± 0.003 mole %
- Photoincorporation yields into 26S-A2669:A2672/ III: 26S 2638-2702 [2, 9]: 0.03 ± 0.02 mole %
- Photoincorporation yields into 26S-A3093/ II: 26S 3069-3113 [2, 9]: 0.04 ± 0.01 mole %
- KA, photoincorporation into Fragments II and III (PTC) ([2]; fit to eq (1)): 200 ± 40 µM
- Kd ([2]; simple hyperbolic binding isotherm, FIG. 7A, read-out: apparent KD, photoincorporation into Fragment I (18S-A1195)): 240 ± 10 µM
- Kd ([3]; two-site model, read-out: Kd, tight site photoincorporation into eRF1 within ternary complex): 90 ± 20 µM
- Kd (eRF1; hyperbolic saturation curve, read-out: Kd, photoincorporation into isolated eRF1): 110 ± 20 µM
